In PubChem BioAssay (NCI):
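Dose response: 5 concentrations. Exposure: 48 h. Format: 96-well plates. Endpoint: linear interpolation; highest concentration if not reached. GI50 = concentration required for 50% inhibition of growth. The concentration for full growth arrest is given as TGI.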

Tests used:
Test in all cases: DTP human tumour cell line panel, 48 h
HCT-15 colon = tested on: HCT-15 colon
SN12C renal = tested on: SN12C renal
SF-295 CNS = tested on: SF-295 CNS
MDA-MB-435 = tested on: MDA-MB-435
SNB-19 CNS = tested on: SNB-19 CNS
EKVX NSCLC = tested on: EKVX NSCLC
HOP-62 NSCLC = tested on: HOP-62 NSCLC
CAKI-1 renal = tested on: CAKI-1 renal
NCI-H460 lung = tested on: NCI-H460 lung
DU-145 prostate = tested on: DU-145 prostate
BT-549 breast = tested on: BT-549 breast
TK-10 renal = tested on: TK-10 renal
SW-620 colon = tested on: SW-620 colon
K-562 leukemia = tested on: K-562 leukemia
A549 NSCLC = tested on: A549 NSCLC
NCI/ADR-RES ovarian = tested on: NCI/ADR-RES ovarian
OVCAR-5 ovarian = tested on: OVCAR-5 ovarian
SF-539 CNS = tested on: SF-539 CNS
SK-OV-3 ovarian = tested on: SK-OV-3 ovarian
SK-MEL-28 melanoma = tested on: SK-MEL-28 melanoma
M14 melanoma = tested on: M14 melanoma
PC-3 prostate = tested on: PC-3 prostate
COLO 205 colon = tested on: COLO 205 colon
UACC-62 melanoma = tested on: UACC-62 melanoma
MCF7 breast = tested on: MCF7 breast
HT29 colon = tested on: HT29 colon
RPMI-8226 leukemia = tested on: RPMI-8226 leukemia
SF-268 CNS = tested on: SF-268 CNS
HOP-92 NSCLC = tested on: HOP-92 NSCLC
KM12 colon = tested on: KM12 colon
HL-60(TB) leukemia = tested on: HL-60(TB) leukemia
786-0 renal = tested on: 786-0 renal
ACHN renal = tested on: ACHN renal
HCC-2998 colon = tested on: HCC-2998 colon
OVCAR-3 ovarian = tested on: OVCAR-3 ovarian
RXF 393 renal = tested on: RXF 393 renal
SR leukemia = tested on: SR leukemia
NCI-H522 lung = tested on: NCI-H522 lung
T-47D breast = tested on: T-47D breast
MOLT-4 leukemia = tested on: MOLT-4 leukemia
OVCAR-4 ovarian = tested on: OVCAR-4 ovarian
NCI-H23 lung = tested on: NCI-H23 lung
CCRF-CEM leukemia = tested on: CCRF-CEM leukemia
HCT-116 colon = tested on: HCT-116 colon
MALME-3M melanoma = tested on: MALME-3M melanoma
UO-31 renal = tested on: UO-31 renal
OVCAR-8 ovarian = tested on: OVCAR-8 ovarian
SNB-75 CNS = tested on: SNB-75 CNS
A498 renal = tested on: A498 renal
SK-MEL-5 melanoma = tested on: SK-MEL-5 melanoma
NCI-H226 lung = tested on: NCI-H226 lung
HS 578T breast = tested on: HS 578T breast
LOX IMVI melanoma = tested on: LOX IMVI melanoma
MDA-MB-231 breast = tested on: MDA-MB-231 breast
IGROV1 ovarian = tested on: IGROV1 ovarian
SK-MEL-2 melanoma = tested on: SK-MEL-2 melanoma
UACC-257 melanoma = tested on: UACC-257 melanoma
U251 CNS = tested on: U251 CNS

N#CC1=C(N)OC2=C(CCOc3c2ccc2ccccc32)C1c1ccc(Br)cc1 (stereo not drawn)
GI50 (HCT-15 colon): 31 µM | TGI (HCT-15 colon): > 100 µM | GI50 (SN12C renal): 21.6 µM | TGI (SN12C renal): 47 µM | GI50 (SF-295 CNS): 18.1 µM | TGI (SF-295 CNS): 83.8 µM | GI50 (MDA-MB-435): 16 µM | TGI (MDA-MB-435): 61.2 µM | GI50 (SNB-19 CNS): 77.7 µM | TGI (SNB-19 CNS): > 100 µM | GI50 (EKVX NSCLC): > 100 µM | TGI (EKVX NSCLC): > 100 µM | GI50 (HOP-62 NSCLC): 56.6 µM | TGI (HOP-62 NSCLC): > 100 µM | GI50 (CAKI-1 renal): 15.1 µM | TGI (CAKI-1 renal): 80.6 µM | GI50 (NCI-H460 lung): 28.4 µM | TGI (NCI-H460 lung): > 100 µM | GI50 (DU-145 prostate): > 100 µM | TGI (DU-145 prostate): > 100 µM | GI50 (BT-549 breast): > 100 µM | TGI (BT-549 breast): > 100 µM | GI50 (TK-10 renal): 21.6 µM | TGI (TK-10 renal): 61.6 µM | GI50 (SW-620 colon): > 100 µM | TGI (SW-620 colon): > 100 µM | GI50 (K-562 leukemia): 16.5 µM | TGI (K-562 leukemia): 54.3 µM | GI50 (A549 NSCLC): 47.1 µM | TGI (A549 NSCLC): > 100 µM | GI50 (NCI/ADR-RES ovarian): 33.4 µM | TGI (NCI/ADR-RES ovarian): > 100 µM | GI50 (OVCAR-5 ovarian): 96.3 µM | TGI (OVCAR-5 ovarian): > 100 µM | GI50 (SF-539 CNS): > 100 µM | TGI (SF-539 CNS): > 100 µM | GI50 (SK-OV-3 ovarian): 28.8 µM | TGI (SK-OV-3 ovarian): > 100 µM | GI50 (SK-MEL-28 melanoma): 61.5 µM | TGI (SK-MEL-28 melanoma): > 100 µM | GI50 (M14 melanoma): 26.9 µM | TGI (M14 melanoma): > 100 µM | GI50 (PC-3 prostate): 19.9 µM | TGI (PC-3 prostate): 53.6 µM | GI50 (COLO 205 colon): 29 µM | TGI (COLO 205 colon): > 100 µM | GI50 (UACC-62 melanoma): 48.1 µM | TGI (UACC-62 melanoma): > 100 µM | GI50 (MCF7 breast): 20.9 µM | TGI (MCF7 breast): 94.2 µM | GI50 (HT29 colon): 36.7 µM | TGI (HT29 colon): > 100 µM | GI50 (RPMI-8226 leukemia): 13.5 µM | TGI (RPMI-8226 leukemia): 40.8 µM | GI50 (SF-268 CNS): 27.8 µM | TGI (SF-268 CNS): > 100 µM | GI50 (HOP-92 NSCLC): 14.1 µM | TGI (HOP-92 NSCLC): 47.4 µM | GI50 (KM12 colon): 14.6 µM | TGI (KM12 colon): 34.3 µM | GI50 (HL-60(TB) leukemia): 17 µM | TGI (HL-60(TB) leukemia): 37.6 µM | GI50 (786-0 renal): 44.9 µM | TGI (786-0 renal): > 100 µM | GI50 (ACHN renal): 41.3 µM | TGI (ACHN renal): > 100 µM | GI50 (HCC-2998 colon): 22.1 µM | TGI (HCC-2998 colon): 56.9 µM | GI50 (OVCAR-3 ovarian): 15.1 µM | TGI (OVCAR-3 ovarian): 39.4 µM | GI50 (RXF 393 renal): 22.8 µM | TGI (RXF 393 renal): 80.9 µM | GI50 (SR leukemia): 17 µM | TGI (SR leukemia): 57.8 µM | GI50 (NCI-H522 lung): > 100 µM | TGI (NCI-H522 lung): > 100 µM | GI50 (T-47D breast): > 100 µM | TGI (T-47D breast): > 100 µM | GI50 (MOLT-4 leukemia): 11.3 µM | TGI (MOLT-4 leukemia): 49 µM | GI50 (OVCAR-4 ovarian): 27.1 µM | TGI (OVCAR-4 ovarian): > 100 µM | GI50 (NCI-H23 lung): 32.8 µM | TGI (NCI-H23 lung): > 100 µM | GI50 (CCRF-CEM leukemia): 16.8 µM | TGI (CCRF-CEM leukemia): 54.2 µM | GI50 (HCT-116 colon): 15.1 µM | TGI (HCT-116 colon): 47.7 µM | GI50 (MALME-3M melanoma): 15.3 µM | TGI (MALME-3M melanoma): 57.7 µM | GI50 (UO-31 renal): > 100 µM | TGI (UO-31 renal): > 100 µM | GI50 (OVCAR-8 ovarian): 77.5 µM | TGI (OVCAR-8 ovarian): > 100 µM

COc1ccc(Nc2nc(N)c(C(=O)c3ccc(Cl)cc3)s2)cc1
TGI (HCT-15 colon): 5.49 µM | TGI (SN12C renal): 22.3 µM | TGI (SF-295 CNS): 15.1 µM | TGI (SNB-75 CNS): 24.8 µM | TGI (MDA-MB-435): < 0.01 µM | TGI (SNB-19 CNS): 31.2 µM | TGI (EKVX NSCLC): > 100 µM | TGI (HOP-62 NSCLC): 17 µM | TGI (CAKI-1 renal): 13.4 µM | TGI (NCI-H460 lung): 4.62 µM | TGI (DU-145 prostate): 0.0558 µM | TGI (A498 renal): > 100 µM | TGI (BT-549 breast): > 73.6 µM | TGI (TK-10 renal): > 46.3 µM | TGI (SW-620 colon): > 100 µM | TGI (K-562 leukemia): > 100 µM | TGI (A549 NSCLC): 22.3 µM | TGI (SK-MEL-5 melanoma): 2.19 µM | TGI (NCI-H226 lung): 0.117 µM | TGI (HS 578T breast): > 100 µM | TGI (NCI/ADR-RES ovarian): 29.7 µM | TGI (LOX IMVI melanoma): 19.9 µM | TGI (OVCAR-5 ovarian): 34.7 µM | TGI (SF-539 CNS): 0.18 µM | TGI (SK-OV-3 ovarian): 20.4 µM | TGI (SK-MEL-28 melanoma): > 100 µM | TGI (M14 melanoma): > 64.4 µM | TGI (PC-3 prostate): 6.61 µM | TGI (COLO 205 colon): 0.117 µM | TGI (UACC-62 melanoma): > 94.5 µM | TGI (MCF7 breast): > 32.9 µM | TGI (MDA-MB-231 breast): 6.13 µM | TGI (IGROV1 ovarian): 17.7 µM | TGI (HT29 colon): 5.28 µM | TGI (SK-MEL-2 melanoma): 38.6 µM | TGI (RPMI-8226 leukemia): < 0.01 µM | TGI (SF-268 CNS): > 67.5 µM | TGI (UACC-257 melanoma): > 100 µM | TGI (HOP-92 NSCLC): > 93.3 µM | TGI (KM12 colon): 0.536 µM | TGI (HL-60(TB) leukemia): < 0.0331 µM | TGI (786-0 renal): 11.2 µM | TGI (ACHN renal): 31.5 µM | TGI (HCC-2998 colon): 3.47 µM | TGI (OVCAR-3 ovarian): 0.421 µM | TGI (RXF 393 renal): 0.0323 µM | TGI (NCI-H522 lung): < 0.01 µM | TGI (T-47D breast): > 100 µM | TGI (U251 CNS): 4.58 µM | TGI (OVCAR-4 ovarian): 2.65 µM | TGI (NCI-H23 lung): 6.78 µM | TGI (HCT-116 colon): 6.64 µM | TGI (UO-31 renal): 16 µM | TGI (OVCAR-8 ovarian): 15 µM
